≈ marks a conversion by molar mass, not a printed value.
Assays:
[1] = test system: C. difficile spores (R20291 strain); assay: Viability of spores recovered from OIC assays (spore outplating), strain R20291; conditions: for R20291 Mean Spore Viability: CFU post-assay/initial CFU
[2] = test system: C. difficile spores (630Δerm strain); conditions: 630Δerm spores; MH broth with taurocholate, 24 h at 37° C.
[3] = test system: human red blood cells (hRBCs)
[4] = test system: C. difficile spores (630Δerm strain); assay: Viability of spores recovered from OIC assays (spore outplating), strain 630Δerm; type: cell-based, Clostridium difficile; conditions: CFU post-assay/initial CFU
Protocol: Experiments were conducted to determine whether any spores fail to germinate under the conditions of the OIC measurement but remain viable for subsequent germination and outgrowth. Spores were incubated for 24 h in the presence of germinant (taurocholate) and one of the polymers or other agents at multiple concentrations above the OIC. These solutions were then diluted 10 to 100-fold into sterile PBS, and further diluted upon plating onto BHIS agar medium containing germinant to achieve concentrations below the OIC of the relevant antimicrobial agent. Spore survival was calculated as the percentage of colony-forming units retrieved on outgrowth plates relative to the initial spore inoculum (100%).
Samples were diluted and plated onto BHIS medium containing 0.1% taurocholate and enumerated following incubation for at least 24 h at 37° C. Spore survival was calculated as the percentage of CFU post-assay/initial CFU.

[5] = test system: C. difficile spores (R20291 strain); conditions: MH broth with taurocholate, 24 h at 37° C.
[6] = test system: C. difficile spores (630Δerm strain); assay: microbe, parasite or virus in culture; conditions: Clostridioides difficile, 24 h, read-out: OIC, minimum inhibition concentration for spore outgrowth
[7] = test system: C. difficile spores (R20291 strain); assay: microbe, parasite or virus in culture; conditions: Clostridioides difficile, 24 h, read-out: OIC, minimum inhibition concentration for spore outgrowth
[8] = Clostridioides difficile, read-out: R20291 Mean Spore Viability

SMILES	R20291 Mean Spore Viability ([1]; concentration 10 μg/ml)	R20291 Mean Spore Viability ([1]; concentration 20 μg/ml)	R20291 Mean Spore Viability ([1]; concentration 40 μg/ml)	R20291 Mean Spore Viability ([1]; concentration 80 μg/ml)	OIC, minimum inhibition concentration for spore outgrowth [2] [µg/mL]	hemolytic activity (in words) [3]	630ΔErm Mean Spore Viability ([4]; concentration 20 μg/ml)	630ΔErm Mean Spore Viability ([4]; concentration 40 μg/ml)	630ΔErm Mean Spore Viability ([4]; concentration 80 μg/ml)	OIC, minimum inhibition concentration for spore outgrowth [5] [µg/mL]	MIC [6] [µg/mL]	viability at 0.5 µg/mL [1, 8] [%]	viability at 1 µg/mL [1, 8] [%]	viability at 2 µg/mL [1, 8] [%]	viability at 4 µg/mL [1, 8] [%]	viability at 8 µg/mL [1, 8] [%]	MIC [7] [µg/mL]
CC[C@H](C)[C@H](NC(=O)[C@H](CCCCN)NC(=O)[C@H](CCC(=O)O)NC(=O)[C@H](CCCCN)NC(=O)[C@H](CO)NC(=O)[C@H](CCCCN)NC(=O)[C@H](CCCNC(=N)N)NC(=O)[C@H](Cc1ccccc1)NC(=O)[C@H](Cc1ccccc1)NC(=O)[C@H](CC(=O)O)NC(=O)CNC(=O)[C@H](CC(C)C)NC(=O)[C@@H](N)CC(C)C)C(=O)NCC(=O)N[C@@H](CCCCN)C(=O)N[C@@H](CCC(=O)O)C(=O)N[C@@H](Cc1ccccc1)C(=O)N[C@@H](CCCCN)C(=O)N[C@@H](CCCNC(=N)N)C(=O)N[C@H](C(=O)N[C@H](C(=O)N[C@@H](CCC(N)=O)C(=O)N[C@@H](CCCNC(=N)N)C(=O)N[C@H](C(=O)N[C@@H](CCCCN)C(=O)N[C@@H](CC(=O)O)C(=O)N[C@@H](Cc1ccccc1)C(=O)N[C@@H](CC(C)C)C(=O)N[C@@H](CCCNC(=N)N)C(=O)N[C@@H](CC(N)=O)C(=O)N[C@@H](CC(C)C)C(=O)N[C@H](C(=O)N1CCC[C@H]1C(=O)N[C@@H](CCCNC(=N)N)C(=O)N[C@H](C(=O)N[C@@H](CCC(=O)O)C(=O)N[C@@H](CO)C(=O)O)[C@@H](C)O)C(C)C)[C@@H](C)CC)C(C)C)[C@@H](C)CC [LL-37]	0.4% (±0.7%)	1.2% (±0.7%)	3.6% (±1.8%)	5.8% (±2.9%)	10	significant hemolytic activity	5.5% (±7.4%)	4.0% (±4.0%)	7.8% (±3.9%)	5							
CN[C@H](CC(C)C)C(=O)N[C@H]1C(=O)N[C@@H](CC(N)=O)C(=O)N[C@H]2C(=O)N[C@H]3C(=O)N[C@H](C(=O)N[C@H](C(=O)O)c4cc(O)cc(O)c4-c4cc3ccc4O)[C@H](O)c3ccc(c(Cl)c3)Oc3cc2cc(c3O[C@@H]2O[C@H](CO)[C@@H](O)[C@H](O)[C@H]2O[C@H]2C[C@](C)(N)[C@H](O)[C@H](C)O2)Oc2ccc(cc2Cl)[C@H]1O [vancomycin]											> 32	21.1	7.7	3.4	1.3	0.9	0.25 (≈ 0.173 µM)

Source: patent publication US10463688B2, “Nylon-3 polymers active against Clostridium difficile” (priority 2015, dated 2019)
